Measurements as given in article PMC6290480 (Cannabis and Cannabinoid Research, 2018).
≈ marks a conversion by molar mass, not a printed value. Where two headings read alike, the source gives them in different places.

Legend:
CB1 [1] = target: T1, CB1 (Homo sapiens, UniProt P21554); test: biochemical; assay type: binding; conditions: for α (binding cooperativity factor): cooperativity with orthosteric agonist [3H]CP55,940, α >1 positive allosteric modulator
T1 construct: expressed in transfected cells; host or cells: HEK293T cells, transient calcium phosphate transfection, pcDNA3.1 vector; membrane preparation
T1 sequence (P21554 whole entry): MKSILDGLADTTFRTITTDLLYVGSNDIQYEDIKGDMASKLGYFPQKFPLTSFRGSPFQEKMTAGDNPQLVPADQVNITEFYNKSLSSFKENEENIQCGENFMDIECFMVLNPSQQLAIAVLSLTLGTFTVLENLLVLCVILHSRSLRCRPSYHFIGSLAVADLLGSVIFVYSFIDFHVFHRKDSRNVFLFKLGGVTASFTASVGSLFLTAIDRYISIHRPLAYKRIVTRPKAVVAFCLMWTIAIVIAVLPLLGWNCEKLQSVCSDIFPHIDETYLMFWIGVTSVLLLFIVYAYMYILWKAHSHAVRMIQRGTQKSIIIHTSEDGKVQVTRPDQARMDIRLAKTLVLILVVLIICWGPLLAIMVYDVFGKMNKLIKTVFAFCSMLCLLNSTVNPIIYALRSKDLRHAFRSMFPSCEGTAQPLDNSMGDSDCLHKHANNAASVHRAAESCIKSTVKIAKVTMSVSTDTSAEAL
Procedure: (§1) Human embryonic kidney 293T (HEK293T) cells were grown and seeded in Dulbecco's modified Eagle's medium with 3.5 mg/mL glucose and 10% fetal bovine serum at 37°C and 5% carbon dioxide. To express the CB1 receptors, HEK293T cells were seeded at 1,000,000 cells/100-mm plate. The following day, cells were transfected via the calcium phosphate method with ∼10 μg of human CB1 receptor cloned into pcDNA3.1[23] Membranes of the transfected cells were prepared as previously described 21 h after transfection.[24]
Approximately 3 μg of membrane preparation expressing CB1 was incubated with nine concentrations of allosteric modulator (1 nM-10 μM). The radiolabeled tracer [[3]H]CP55,940 (150.2 Ci/mmol; Perkin Elmer), an orthosteric agonist of CB1, was added at 0.5 nM. Nonspecific binding was established by treating with a high concentration of unlabeled CP55,940 (10 μM; Tocris). The membranes were incubated at 30°C for 60 min, and the reaction was terminated with the addition of 300 μL of Tris-Mg^2+-EDTA (TME) buffer with 5% bovine serum albumin (BSA). The mixture was harvested by filtration through a Brandel cell harvester with Whatman GF/C filter paper. Liquid scintillation counting was used to measure radioactivity.
To synthesize the target azaindole-2-carboxamides, it requires corresponding azaindole-2-carboxylic acids (i.e., 1b and 8) as the key building blocks (Fig. 2). To access these azaindole-2-carboxylic acids, we used the Hemetsberger–Knittel indole synthesis, which involves Knoevenagel condensation between a pyridinecarbaldehyde and the azido acetate 5.[20] […] In this investigation, the 6-azaindole-2-carboxylic acid 1b was obtained from a commercial source (Achemtek, Worcester, MA). […] At the receptor binding level, when α is >1, the ligand is a positive allosteric modulator, whereas when α is <1, the ligand is a negative allosteric modulator. Accordingly, when α is equal to 1, it indicates no allosteric modulation on orthosteric ligand binding.

physchem = assay type: physicochemical; conditions: for solubility thermodynamic at 24 h: 37 °C, pH 7.4, aqueous buffer, thermodynamic from solid
Procedure: The thermodynamic solubility of selected compounds were tested according to previously reported methods.[16],[22] In brief, stock solution of test compound (1 mg/mL) in acetonitrile was prepared and then diluted with mobile phase to prepare the calibration standards in the concentration range of 0.1–50 μg/mL. Following this, 2 mg of test compound powder was suspended in 2 mL of phosphate-buffered saline (PBS; 10 mM) at pH 7.4 and 37°C. The suspension was stirred at 37°C with 800 rpm stirring for 24 h. After completion of the incubation, the saturated suspension was filtered through a syringe polytetrafluoroethylene filter (0.45 μm), which has no absorption for the compounds. 200 μL of the filtrate was diluted with 800 μL acetonitrile immediately to a final volume of 1 mL. Subsequently, 20 μL of this solution was used for the high-performance liquid chromatography (HPLC) analysis, which was analyzed on Shimadzu HPLC (LC model: LC20AB, UV/vis detector: SPD20A; Autosampler: SIL-20A HT) with a Phenomenex reverse phase C18 column (250×3 mm, Luna 5 μm C18 100Å). The HPLC analysis was carried out by using the mixture of acetonitrile and water (60:40 v/v) as the mobile phase with a flow rate of 1 mL/min. The signals were detected at UV wavelength 254 nm. At this wavelength, each peak's area under the curve was measured and used for the quantitative evaluation.

CB1 [2] = target: T1, CB1; test: [35S]GTPγS binding evaluation (G-protein coupling); assay type: biochemical; conditions: percent of basal; for [35S]GTPγS binding, allosteric modulator alone: CB1 membranes treated with modulator alone; for [35S]GTPγS binding in the presence of CP55,940: modulator at 5 and 10 μM plus 0.1 μM CP55,940, compared to 0.1 μM CP55,940 alone
Procedure: as §1
To assess the impact of 3c and 3d on G-protein coupling of CB1, GTPγS assays were performed essentially as described previously.[20] […] GTPγS binding assay buffer (50 mM Tris-HCl, pH 7.4, 3 mM MgCl2, 0.2 mM EGTA, and 100 mM NaCl) was added to 200 μL. The membranes were incubated for 1 h at 30°C. To determine nonspecific binding, 10 μM unlabeled GTPγS (Sigma) was used. To determine basal activity, membrane preparations were treated with vehicle (dimethylsulfoxide or DMSO) alone. Termination of the reaction was achieved through filtration using Whatman GF/C filter papers and washing with cold TME buffer. Bound radioactivity was measured by liquid scintillation counting.

[3] = membranes of HEK293T cells expressing CB1, tracer [3H]CP55,940 0.5 nM, 30°C, 60 min, read-out: KB (equilibrium dissociation constant)
[4] = membranes of HEK293T cells expressing CB1, tracer [3H]CP55,940 0.5 nM, 30°C, 60 min

SMILES | α (binding cooperativity factor) (CB1 [1]) | Kb (CB1 [1]; [3]) [nM] | Thermodynamic solubility (obtained from experiments) (physchem; 24 h, pH 7.4) [µg/mL] | Kb (CB1 [1]) [nM] | KB (equilibrium dissociation constant) (CB1 [1]; [4]) | solubility thermodynamic at 24 h (physchem) [µg/mL] | [35S]GTPγS binding, allosteric modulator alone (CB1 [2]) | [35S]GTPγS binding in the presence of CP55,940 (CB1 [2]) | reduction of binding to the CB1 receptor in comparison with indole-2-carboxamide counterpart 3b (CB1 [1]; 3d versus 3b) | solubility in common organic solvents suitable for HPLC sample preparation (physchem)
CN(C)c1ccc(CCNC(=O)c2cc3cc(Cl)ccc3[nH]2)cc1 [Compound 3a] | 4.2 | 300 | 0 |  |  |  |  |  |  | 
O=C(NCCc1ccc(N2CCCCC2)cc1)c1cc2cc(Cl)ccc2[nH]1 [Compound 3b] | 5.1 |  |  | 200 |  |  |  |  |  | 
CN(C)c1ccc(CCNC(=O)c2cc3cc(Cl)ncc3[nH]2)cc1 [Compound 3c] | 3.2 | 2400 |  |  | modest binding affinity | 1.6 (≈ 4.67 µM) | inhibition of G-protein coupling was also seen | inhibition of GTPγS binding |  | 
O=C(NCCc1ccc(N2CCCCC2)cc1)c1cc2cc(Cl)ncc2[nH]1 [Compound 3d] |  | 5600 |  |  | modest binding affinity |  | inhibition of G-protein coupling was also seen | inhibition of GTPγS binding | about 25 fold | 
CN(C)c1ccc(CCNC(=O)c2cc3cc(Cl)cnc3[nH]2)cc1 [Compound 9a] |  | > 10000 |  |  | completely lost their binding affinity | 3 (≈ 8.75 µM) |  |  |  | exceptionally low solubility
O=C(NCCc1ccc(N2CCCCC2)cc1)c1cc2cc(Cl)cnc2[nH]1 [Compound 9b] |  | > 10000 |  |  | completely lost their binding affinity |  |  |  |  | 
